Laboratory results taken from patent US20080280288A1, “Assay Method to Predict Sensitivity of Cancer Cell to Anticancer Drug” (priority 2004, published 2008).
“Also recorded” adds a separate entry of the source.

Legend:
[1] = system: NCI-H596 (NSCLC) human cancer cell line; assay: NCI-H596 subcutaneous xenograft in nude mice, relative tumor volume ratio; format: in vivo; details: NCI-H596 s.c. in nude mice; intravenously 10 mg/kg/day for five days
Procedure: (§1) The 25 human cancer cells proliferated in culture flasks or in the subcutaneous tissues of the nude mice were subcutaneously implanted to the bodysides of nude mice, and the mice were classified into a group of 5 control mice and a group of 5 treated mice of the compound 2 so that the average tumor volume of each group was uniform at the time of a tumor volume of 100 mm^3 or larger. The mice of the treated group were intravenously infused at 10 mg/kg/day for five days, and the mice of the control group were not treated or infused with the vehicle. The tumor volume was measured from day 1, subsequently measured over time on Day 5, 8, 12, 15, and a relative tumor volume ratio (T/C %)was estimated.
(§2) The cancer cells proliferated in culture flasks or in the subcutaneous tissues of the nude mice were subcutaneously implanted to the bodysides of nude mice, and the mice were classified into a group of 5 control mice and a group of 5 treated mice of the compounds so that the average tumor volume of each group was uniform at the time of a tumor volume of 100 mm^3 or larger. The mice of the treated group were intravenously infused at 10 mg/kg/day for five days, and the mice of the control group were not treated or infused with the vehicle. The tumor volume was measured from Day 1, and subsequently measured over time on Day 5, 8, 12, 15, and the relative tumor volume ratio was estimated. […]

[2] = system: NCI-H510 (SCLC) human cancer cell line; assay: NCI-H510 subcutaneous xenograft in nude mice, relative tumor volume ratio; format: in vivo; details: NCI-H510 s.c. in nude mice; intravenously 10 mg/kg/day for five days
Procedure: as §1

[3] = system: NCI-H522 (SCLC) human cancer cell line; assay: NCI-H522 subcutaneous xenograft in nude mice, relative tumor volume ratio; format: in vivo; details: NCI-H522 s.c. in nude mice; intravenously 10 mg/kg/day for five days
Procedure: as §1, §2

[4] = system: SK-OV-3 (ovarian) human cancer cell line; assay: SK-OV-3 subcutaneous xenograft in nude mice, relative tumor volume ratio; format: in vivo; details: SK-OV-3 s.c. in nude mice; intravenously 10 mg/kg/day for five days
Procedure: as §1

[5] = system: HBC4 (breast) human cancer cell line; assay: HBC4 subcutaneous xenograft in nude mice, relative tumor volume ratio; format: in vivo; details: HBC4 s.c. in nude mice; intravenously 10 mg/kg/day for five days
Procedure: as §1

[6] = system: MDA-MB435 (breast) human cancer cell line; assay: MDA-MB435 subcutaneous xenograft in nude mice, relative tumor volume ratio; format: in vivo; details: MDA-MB435 s.c. in nude mice; intravenously 10 mg/kg/day for five days
Procedure: as §1, §2

[7] = system: DLD-1 (colorectal) human cancer cell line; assay: DLD-1 subcutaneous xenograft in nude mice, relative tumor volume ratio; format: in vivo; details: DLD-1 s.c. in nude mice; intravenously 10 mg/kg/day for five days
Procedure: as §1, §2

[8] = system: OVCAR3 (ovarian) human cancer cell line; assay: OVCAR3 subcutaneous xenograft in nude mice, relative tumor volume ratio; format: in vivo; details: OVCAR3 s.c. in nude mice; intravenously 10 mg/kg/day for five days
Procedure: as §1, §2

[9] = system: KM12 (colorectal) human cancer cell line; assay: KM12 subcutaneous xenograft in nude mice, relative tumor volume ratio; format: in vivo; details: KM12 s.c. in nude mice; intravenously 10 mg/kg/day for five days
Procedure: as §1

[10] = system: KPL-4 (breast) human cancer cell line; assay: KPL-4 subcutaneous xenograft in nude mice, relative tumor volume ratio; format: in vivo; details: KPL-4 s.c. in nude mice; intravenously 10 mg/kg/day for five days
Procedure: as §1

[11] = system: DU145 (prostate) human cancer cell line; assay: DU145 subcutaneous xenograft in nude mice, relative tumor volume ratio; format: in vivo; details: DU145 s.c. in nude mice; intravenously 10 mg/kg/day for five days
Procedure: as §1
(§3) The cancer cells proliferated in culture flasks or in the subcutaneous tissues of the nude mice were subcutaneously implanted to the bodysides of nude mice, and the mice were classified into a group of 5 control mice and a group of 5 treated mice of the compounds so that the average tumor volume of each group was uniform at the time of a tumor volume of 100 mm^3 or larger. The mice of the treated group were intravenously infused at 10 mg/kg/day for five days, and the mice of the control group were not treated or infused with the vehicle. The tumor volume was measured from Day 1, and subsequently measured over time on Day 5, 8, 12, 15, and the relative tumor volume ratio was estimated. However, the experiment was basically discontinued at Day 15 in evaluation of the compound 1. In Table 2, the T/C % of the compounds 1, 2, 4 and the compound 2 in Example 2 to each cancer cell are shown.

[12] = system: SW620 (colorectal) human cancer cell line; assay: SW620 subcutaneous xenograft in nude mice, relative tumor volume ratio; format: in vivo; details: SW620 s.c. in nude mice; intravenously 10 mg/kg/day for five days
Procedure: as §1, §2

[13] = system: PC-3 (prostate) human cancer cell line; assay: PC-3 subcutaneous xenograft in nude mice, relative tumor volume ratio; format: in vivo; details: PC-3 s.c. in nude mice; intravenously 10 mg/kg/day for five days
Procedure: as §1, §3

[14] = system: HT-29 (colorectal) human cancer cell line; assay: HT-29 subcutaneous xenograft in nude mice, relative tumor volume ratio; format: in vivo; details: HT-29 s.c. in nude mice; intravenously 10 mg/kg/day for five days
Procedure: as §1, §3

[15] = system: MDA-MB468 (breast) human cancer cell line; assay: MDA-MB468 subcutaneous xenograft in nude mice, relative tumor volume ratio; format: in vivo; details: MDA-MB468 s.c. in nude mice; intravenously 10 mg/kg/day for five days
Procedure: as §1

[16] = system: FaDu (head & neck) human cancer cell line; assay: FaDu subcutaneous xenograft in nude mice, relative tumor volume ratio; format: in vivo; details: FaDu s.c. in nude mice; intravenously 10 mg/kg/day for five days
Procedure: as §1, §3

[17] = system: BSY-1 (breast) human cancer cell line; assay: BSY-1 subcutaneous xenograft in nude mice, relative tumor volume ratio; format: in vivo; details: for Tumor volume ratio (T/C %): BSY-1 s.c. in nude mice, intravenously 10 mg/kg/day for five days
Procedure: as §1, §3

[18] = system: NCI-H460 (NSCLC) human cancer cell line; assay: NCI-H460 subcutaneous xenograft in nude mice, relative tumor volume ratio; format: in vivo; details: for Tumor volume ratio (T/C %): NCI-H460 s.c. in nude mice, intravenously 10 mg/kg/day for five days
Procedure: as §1, §3

[19] = system: NCI-H69 (SCLC) human cancer cell line; assay: NCI-H69 subcutaneous xenograft in nude mice, relative tumor volume ratio; format: in vivo; details: NCI-H69 s.c. in nude mice; intravenously 10 mg/kg/day for five days
Procedure: as §1

[20] = system: LC-6-JCK (NSCLC) human cancer cell line; assay: LC-6-JCK subcutaneous xenograft in nude mice, relative tumor volume ratio; format: in vivo; details: LC-6-JCK s.c. in nude mice; intravenously 10 mg/kg/day for five days
Procedure: as §1, §2

[21] = system: NCI-H146 (SCLC) human cancer cell line; assay: NCI-H146 subcutaneous xenograft in nude mice, relative tumor volume ratio; format: in vivo
Procedure: as §1

[22] = system: Calu-1 (NSCLC) human cancer cell line; assay: Calu-1 subcutaneous xenograft in nude mice, relative tumor volume ratio; format: in vivo; details: Calu-1 s.c. in nude mice; intravenously 10 mg/kg/day for five days
Procedure: as §1

[23] = system: Lu99 (NSCLC) human cancer cell line; assay: Lu99 subcutaneous xenograft in nude mice, relative tumor volume ratio; format: in vivo; details: Lu99 s.c. in nude mice; intravenously 10 mg/kg/day for five days
Procedure: as §1

[24] = system: WiDr (colorectal) human cancer cell line; assay: WiDr subcutaneous xenograft in nude mice, relative tumor volume ratio; format: in vivo; details: WiDr s.c. in nude mice; intravenously 10 mg/kg/day for five days
Procedure: as §1, §3

[25] = system: NCI-H526 (SCLC) human cancer cell line; assay: NCI-H526 subcutaneous xenograft in nude mice, relative tumor volume ratio; format: in vivo
Procedure: as §1

[26] = system: human breast cancer cell line (BSY-1); details: reported in WO 02/060890, WO 03/099813, WO 04/011661; cited from earlier work
[27] = system: human colon cancer cell line (WiDr); details: reported in WO 03/099813 and related filings; cited from earlier work

SMILES	Tumor volume ratio (T/C %) [1]	Tumor volume ratio (T/C %) [3]	Tumor volume ratio (T/C %) [6]	Tumor volume ratio (T/C %) [7]	Tumor volume ratio (T/C %) [8]	Tumor volume ratio (T/C %) [11]	Tumor volume ratio (T/C %) [12]	Tumor volume ratio (T/C %) [13]	Tumor volume ratio (T/C %) [14]	Tumor volume ratio (T/C %) [16]	Tumor volume ratio (T/C %) [17]	Tumor volume ratio (T/C %) [18]	Tumor volume ratio (T/C %) [20]	Tumor volume ratio (T/C %) [24]	Antitumor activity to WiDr (in words) [27]	further results
CCC(O)C(C)C1OC1CC(C)(O)/C=C/C=C(\C)C1OC(=O)CC(O)CCC(C)(O)C(OC(=O)N2CCN(C3CCCCCC3)CC2)/C=C/C1C (stereo not drawn) [Compound 2, (8E,12E,14E)-7-((4-cycloheptylpiperazin-1-yl)carbonyl)oxy-3,6,16,21-tetrahydroxy-6,10,12,16,20-pentamethyl-18,19-epoxytricosane-8,12,14-trien-11-olide]	18%	42%	28%	47%	0%	28%	28%	2%	28%	3%	0%	33%	0%	4%		Tumor volume ratio (T/C %) [2]: 10%; Tumor volume ratio (T/C %) [4]: 27%; Tumor volume ratio (T/C %) [5]: 5%; Tumor volume ratio (T/C %) [9]: 34%; Tumor volume ratio (T/C %) [10]: 23%; Tumor volume ratio (T/C %) [15]: 0%; Sensitivity of the cancer cell line to the compound (in words) ([17]; BSY-1 xenograft in nude mice): high sensitivity until remission; Sensitivity of the cancer cell line to the compound (in words) ([18]; H460 xenograft in nude mice): low sensitivity; Tumor volume ratio (T/C %) [19]: 1%; Tumor volume ratio (T/C %) ([21]; NCI-H146 s.c. in nude mice, intravenously 10 mg/kg/day for five days): 1%; Course of the tumor (in words) ([21]; NCI-H146 xenograft in nude mice, tumor not eliminated): consecutive reduction of the tumor for a long term; Tumor volume ratio (T/C %) [22]: 55%; Tumor volume ratio (T/C %) [23]: 8%; Sensitivity of the cancer cell line to the compound (in words) ([25]; H526 xenograft in nude mice): high sensitivity without remission; Tumor volume ratio (T/C %) ([25]; NCI-H526 s.c. in nude mice, intravenously 10 mg/kg/day for five days): 1%
CCC(O)C(C)C1OC1CC(C)/C=C/C=C(\C)C1OC(=O)CC(O)CCC(C)(O)C(OC(C)=O)/C=C/C1C (stereo not drawn) [Compound 1, (8E,12E,14E)-7-acetoxy-3,6,21-trihydroxy-6,10,12,16,20-pentamethyl-18,19-epoxytricosane-8,12,14-trien-11-olide]	76%	64%	50%	59%	23%	26%		20%	58%	33%	0%	53%		29%		Antitumor activity to BSY-1 (in words) [26]: high sensitivity; also recorded: high antitumor activity
CCC(O)C(C)C1OC1CC(C)(O)/C=C/C=C(\C)C1OC(=O)CC(O)CCC(C)(O)C(OC(=O)N2CCN(C)CC2)/C=C/C1C (stereo not drawn) [Compound 4, (8E,12E,14E)-3,6,16,21-tetrahydroxy-6,10,12,16,20-pentamethyl-7-((4-methylpiperazin-1-yl)-carbonyl)oxy-18,19-epoxytricosane-8,12,14-trien-11-olide]						26%		3%	46%	5%				7%	antitumor activity	
CCC(O)C(C)C1OC1CC(C)(O)/C=C/C=C(\C)C1OC(=O)CC(O)CCC(C)(O)C(OC(=O)N2CCN(C(C)C)CC2)/C=C/C1C (stereo not drawn) [Compound 3, (8E,12E,14E)-3,6,16,21-tetrahydroxy-7-((4-isopropylpiperazin-1-yl)carbonyl)oxy-6,10,12,16,20-pentamethyl-18,19-epoxytricosane-8,12,14-trien-11-olide]						34%	19%	4%	26%	1%	2%		0%	4%	antitumor activity	
